# Patent US20260309717A1, “PROXIMITY INDUCING SYSTEM AND USES THEREOF” (SORBONNE UNIVERSITE, priority 2022, published 2026)
# Legend:
# Assay type in all cases: cell-based
# [1] = target: T1, mCherry-^FIREtag / Lyn11-ECFP-^FIREmate (Halorhodospira halophila, UniProt P16113, A30V/C69G/D97P/F96I, form not given/G21E/G25R/K17N/M100R/M109L/Q41L/Q99S/S72T/T101G/V83A/Y94W/Y98T); assay: Recruitment of cytoplasmic protein to the plasma membrane, HEK293 cells; details: 10 μM
# T1 construct: Lyn11-ECFP-FIREmate and mCherry-FIREtag in HEK293 cells
# T1 sequence (P16113 1-114 A30V/C69G/D97P/F96I/G21E/G25R/K17N/M100R/M109L/Q41L/Q99S/S72T/T101G/V83A/Y94W/Y98T): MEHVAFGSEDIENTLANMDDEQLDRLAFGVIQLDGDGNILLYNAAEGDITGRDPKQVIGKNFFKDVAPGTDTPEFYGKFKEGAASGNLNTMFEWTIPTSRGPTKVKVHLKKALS
# Method: FIGS. 8A-E illustrate the recruitment of cytoplasmic proteins to the plasma membrane with the proximity inducing system described herein. FIG. 8A is a representation of the experimental design wherein HEK293 cells co-expressing mCherry-^FIREtag and Lyn11-ECFP-^FIREmate were treated with 10 μM of match (either HBR-2,5DM or HMBR), and imaged by time-lapse confocal microscopy. FIGS. 8B-C are graphs showing the temporal evolution of the FIRE signal detected upon addition at 0 min of HBR-2,5DM (match1-8B) or HMBR (match2-8C). Data represents the mean values±SD of 22 cells from n=3 independent experiments (8B, D), or of 30 cells from n=3 independent experiments (8C, E). FIGS. 8D-E are sets of representative confocal micrographs of cells before (0 min) and after (5 min) addition of HBR-2,5DM (match1-8D) or HMBR (match2-8E) (mCherry: ex/em 561/606-675 nm; FIRE: ex/em 488/508-570 nm; ECFP: ex/em 445/455-499 nm). […] Scale bars are 20 μm.
# (§1) The confocal micrographs were acquired on a Zeiss LSM 980 Laser Scanning Microscope equipped with a plan apochromat 63x/1.4 NA oil immersion objective. ZEN software was used to collect the data. The images were analyzed using Icy (2.4.0.0) and Fiji (Image J). In short, to track fluorescence signal in a specific organelle, a ROI (region of interest) was determined by masking the signal in the ECFP (Enhanced Cyan Fluorescent Protein) channel with the plug-in HK-means with the following parameters: intensity class equals 100, minimum object size (pixels or px) equals 500, maximum object size (px) equals 1500-3000. The signal intensity of the ROI was tracked over time for each channel by using plug-in Active Contours. The background signal was subtracted. Data were processed using GraphPad Prism v9.3.0.
# (§2) To further evaluate the scope of the proximity inducing system described herein and show its versatility, ^FIREmate was anchored at the membrane of various organelles or cellular structures so that ^FIREmate faced the cytosol. ^FIREmate was thus fused: • to the N-terminus of the transmembrane domain (amino acid residues at positions 3131-3259) of Giantin for location at the cis-medial rims of the Golgi apparatus (FIG. 6A), • to the N-terminus of the transmembrane domain (amino acid residues at positions 100-134) of the cytochrome b5 (Cb5) for location at the endoplasmic reticulum membrane (FIG. 7A), and • to the C-terminus of the Lyn11 inner membrane targeting sequence for location at the plasma membrane (FIG. 8A).
# (§3) For each construct, an ECFP was inserted between ^FIREmate and the other protein domain/sequence to monitor the localization of the resulting fusion protein (blue fluorescence). Each fusion protein was co-expressed in mammalian cells (HeLa cells or HEK293 cells as indicated) together with mCherry-^FIREtag (red fluorescence). […]
# [2] = target: T2, mCherry-^FIREtag / ^FIREmate-ECFP-Giantin (Halorhodospira halophila, UniProt P16113, A30V/C69G/D97P/F96I, form not given/G21E/G25R/K17N/M100R/M109L/Q41L/Q99S/S72T/T101G/V83A/Y94W/Y98T); assay: Recruitment of cytoplasmic protein to the Golgi apparatus, HeLa cells; details: 10 μM
# T2 construct: FIREmate-ECFP-Giantin(3131-3259) and mCherry-FIREtag in HeLa cells
# T2 sequence (P16113 1-114 A30V/C69G/D97P/F96I/G21E/G25R/K17N/M100R/M109L/Q41L/Q99S/S72T/T101G/V83A/Y94W/Y98T): T1 sequence (P16113 1-114 A30V/C69G/D97P/F96I/G21E/G25R/K17N/M100R/M109L/Q41L/Q99S/S72T/T101G/V83A/Y94W/Y98T)
# Method: FIGS. 6A-E illustrate the recruitment of cytoplasmic proteins to the Golgi apparatus with the proximity inducing system described herein. FIG. 6A is a representation of the experimental design wherein HeLa cells co-expressing mCherry-^FIREtag and ^FIREmate-ECFP-Giantin were treated with 10 µM of match (either HBR-2,5DM or HMBR), and imaged by time-lapse confocal microscopy. FIGS. 6B-C are graphs showing the temporal evolution of the FIRE signal detected upon addition at 0 min of HBR-2,5DM (match1-6B) or HMBR (match2-6C). Data represents the mean values±SD of 10 cells from n=3 independent experiments (6B, D), or of 12 cells from n=3 independent experiments (6C, E). FIGS. 6D-E are sets of representative confocal micrographs of cells before (0 min) and after (5 min) addition of HBR-2,5DM (match1-6D) or HMBR (match2-6E) (mCherry: ex/em 561/606-675 nm; FIRE: ex/em 488/508-570 nm; ECFP: ex/em 445/455-499 nm). […] Scale bars are 20 μm.
# as §1, §2, §3
# [3] = target: T3, ^FIREmate and ^FIREtag (fused to FRB and FKBP) (Halorhodospira halophila, UniProt P16113, A30V/C69G/D97P/F96I, form not given/G21E/G25R/K17N/M100R/M109L/Q41L/Q99S/S72T/T101G/V83A/Y94W/Y98T); assay: Flow cytometry of fluorescent ternary assembly formation in HEK293T cells co-expressing FKBP-^FIREtag and FRB-^FIREmate
# T3 sequence (P16113 1-114 A30V/C69G/D97P/F96I/G21E/G25R/K17N/M100R/M109L/Q41L/Q99S/S72T/T101G/V83A/Y94W/Y98T): T1 sequence (P16113 1-114 A30V/C69G/D97P/F96I/G21E/G25R/K17N/M100R/M109L/Q41L/Q99S/S72T/T101G/V83A/Y94W/Y98T)
# Method: FIGS. 2A and 2B are graphs illustrating the fluorogen-dependent interaction between the two polypeptides ^FIREmate and ^FIREtag. The graphs show the normalized average fluorescence detected from about 50,000 HEK293T cells co-expressing the FK506-binding protein (FKBP) fused to ^FIREtag and the FKBP-rapamycin-binding domain of mammalian target of rapamycin (FRB) fused to ^FIREmate treated without (triangles) or with (squares) 500 nM of rapamycin, and with 1, 5, 10, 25 or 50 μM of HBR-2,5DM (2A) or HMBR (2B). Data represent the mean values±SD of three independent experiments.
# The formation of a fluorescent ternary assembly was assessed by flow cytometry in HEK293 cells expressing ^FIREmate and ^FIREtag fused to the C-termini of FKBP (FK506-binding protein) and FRB (FKBP-rapamycin-binding domain of mammalian target of rapamycin), […]. FKBP and FRB are able to dimerize upon addition of rapamycin. Treatment of the HEK293 cells with rapamycin is thus expected to induce the dimerization of FKBP and FRB, and subsequently to induce proximity between ^FIREtag and ^FIREmate.
# [4] = target: T4, mCherry-^FIREtag / ^FIREmate-ECFP-Cb5 (Halorhodospira halophila, UniProt P16113, A30V/C69G/D97P/F96I, form not given/G21E/G25R/K17N/M100R/M109L/Q41L/Q99S/S72T/T101G/V83A/Y94W/Y98T); assay: Recruitment of cytoplasmic protein to the endoplasmic reticulum, HeLa cells; details: 10 μM
# T4 construct: FIREmate-ECFP-Cb5(100-134) and mCherry-FIREtag in HeLa cells
# T4 sequence (P16113 1-114 A30V/C69G/D97P/F96I/G21E/G25R/K17N/M100R/M109L/Q41L/Q99S/S72T/T101G/V83A/Y94W/Y98T): T1 sequence (P16113 1-114 A30V/C69G/D97P/F96I/G21E/G25R/K17N/M100R/M109L/Q41L/Q99S/S72T/T101G/V83A/Y94W/Y98T)
# Method: FIGS. 7A-E illustrate the recruitment of cytoplasmic proteins to the endoplasmic reticulum with the proximity inducing system described herein. FIG. 7A is a representation of the experimental design wherein HeLa cells co-expressing mCherry-^FIREtag and ^FIREmate-ECFP-Cb5 were treated with 10 μM of match (either HBR-2,5DM or HMBR), and imaged by time-lapse confocal microscopy. FIGS. 7B-C are graphs showing the temporal evolution of the FIRE signal detected upon addition at 0 min of HBR-2,5DM (match1-7C) or HMBR (match2-7D). Data represents the mean values±SD of 17 cells from n=3 independent experiments (7B, D), or of 18 cells from n=3 independent experiments (7C, E). FIGS. 7D-E are sets of representative confocal micrographs of cells before (0 min) and after (5 min) addition of HBR-2,5DM (match1-7D) or HMBR (match2-7E) (mCherry: ex/em 561/606-675 nm; FIRE: ex/em 488/508-570 nm; ECFP: ex/em 445/455-499 nm). […] Scale bars are 20 μm.
# as §1, §2, §3
# [5] = target: T2, mCherry-^FIREtag / ^FIREmate-ECFP-Giantin; assay: Induction of proximity with a non-fluorogenic chromophore, HeLa cells; details: 10 μM
# Method: HeLa cells co-expressing mCherry-^FIREtag and ^FIREmate-ECFP-Giantin were treated with 10 μM HBR-2,5DM (match1), washed with HBR-2,5DM-free medium and then treated with 10 μM HBIR-3M. Cells were imaged by time-lapse spinning-disk confocal microscopy. FIGS. 9A-D are sets of representative confocal micrographs of untreated cells (9A), cells after addition of HBR-2,5DM (match1) (9B), cells after washout of HBR-2,5DM (match1) (9C), and cells after addition of HBIR-3M (9D). (mCherry: ex/em 561/606-675 nm; FIRE: ex/em 488/508-570 nm). Scale bars are 10 μm.
# Next, experiments were carried out to investigate whether other chromophores could act as molecular inducer of proximity and provide new properties. In particular, non-fluorogenic chromophores, such as HBIR-3M, were investigated. […] The fusion proteins mCherry-^FIREtag (red fluorescence) and ^FIREmate-ECFP-Giantin (blue fluorescence) were co-expressed in HeLa cells as described above.
# [6] = system: mCherry-FKBP-^FIREtag / TOM20-^FIREmate / FRB-ECFP-Giantin; assay: Orthogonality with FRB-FKBP-rapamycin CIP system, confocal microscopy, HeLa cells; details: simultaneous addition of 10 μM HBR-2,5DM and 500 nM rapamycin
# Method: FIG. 12A is a representation of the experimental design wherein HeLa cells co-expressing mCherry-FKBP-^FIREtag, TOM20-^FIREmate and FRB-ECFP-Giantin were treated with 10 μM of match (i.e., HBR-2,5DM) and 500 nM rapamycin, and imaged by time-lapse confocal microscopy. FIG. 12B is a set of representative confocal micrographs of cells before and after addition of HBR-2,5DM (match1) and rapamycin (rap) (mCherry: ex/em 561/606-675 nm; FIRE: ex/em 488/508-570 nm; ECFP: ex/em 445/455-499 nm). Scale bars are 20 μm.
# as §1, with “v9.3.0. […]” for “v9.3.0.”
structure (smiles),measurement,setting,value
"Cc1cc(/C=C2\SC(=S)NC2=O)ccc1O [HMBR, (Z)-5-(4-hydroxy-3-methylbenzylidene)-2-thioxo-1,3-thiazolidin-4-one]",FIRE signal at the plasma membrane,[1],simultaneous appearance of green fluorescence
same,translocation of mCherry-^FIREtag to the plasma membrane,[1],rapid translocation of mCherry-^FIREtag to the organelle
same,FIRE signal at the Golgi apparatus,[2],simultaneous appearance of green fluorescence
same,translocation of mCherry-^FIREtag to the Golgi apparatus,[2],rapid translocation of mCherry-^FIREtag to the organelle
same,dimerization of FKBP and FRB (induced proximity),[3]; absence of rapamycin,able to induce the dimerization of FKBP and FRB
same,formation of a ternary fluorescent assembly,"[3]; fluorogen 1, 5, 10, 25 or 50 μM, HEK293 cells",induced the formation of a ternary fluorescent assembly at all tested fluorogen concentrations
same,dependence of ternary fluorescent assembly formation on rapamycin (initial proximity),"[3]; with or without 500 nM rapamycin, fluorogen 1-50 μM",regardless of the presence or absence of rapamycin
same,FIRE signal at the endoplasmic reticulum,[4],simultaneous appearance of green fluorescence
same,translocation of mCherry-^FIREtag to the endoplasmic reticulum,[4],rapid translocation of mCherry-^FIREtag to the organelle
"Cc1cc(/C=C2\SC(=O)NC2=S)ccc1O [HBIR-3M, (Z)-5-(4-hydroxy-3-methylbenzylidene)-4-thioxo-1,3-thiazolidin-2-one]","assembly with ^FIREtag and ^FIREmate (tightness, fluorescence)",[5],very tight non-fluorescent ‘invisible’ assembly
same,"induction of proximity relative to HBR-2,5DM",[5]; cycles of sequential addition and removal,"as efficiently as HBR-2,5DM"
"CO[C@H]1C[C@@H]2CC[C@@H](C)[C@@](O)(O2)C(=O)C(=O)N2CCCC[C@H]2C(=O)O[C@H]([C@H](C)C[C@@H]2CC[C@@H](O)[C@H](OC)C2)CC(=O)[C@H](C)/C=C(\C)[C@@H](O)[C@@H](OC)C(=O)[C@H](C)C[C@H](C)/C=C/C=C/C=C/1C [rapamycin, reference compound]",translocation of mCherry-FKBP-^FIREtag,[6],triggered the translocation of mCherry-FKBP-^FIREtag to the Golgi apparatus and to the mitochondria
